These results are taken from US12257245B2, “Methods and compositions for inhibition of EGF/EGFR pathway in combination with anaplastic lymphoma kinase inhibitors” (In3Bio Ltd., priority 2018, dated 2025).

One data set addresses ALK (Homo sapiens, UniProt Q9UM73). To be noted: cited from earlier work.
For data set [1] the following is noted: in vivo; cited from earlier work.
For data set [2], the system named is pEGFR (TYR 1068), pSTAT3 (TYR 705), pAKT (SER 473), pERK1/2 (THR 202/TYR 204) in DLD1 cells. In words: Western blot of signaling in DLD1 cells. The class given is cell-based. The following applies: 2 hour (BVN22E antibodies alone: 2 and 24 hour). The procedure: The effects of BVN22E antibodies were investigated in DLD1 cells via Western Blots, see FIGS. 42 and 43.
The effect of Trametinib treatment in the DLD1 cell line was also assessed in a western blot assay and the results are presented in FIG. 45. […] Inhibition of pStat3 and pERK1/2 were observed, though only at concentrations beyond the physiological concentrations of Trametinib used in patients.
BVN22E antibodies alone inhibited phosphorylation of EGFR.
A general note: A western blot detects proteins with antibodies after separation by electrophoresis.

ALK, sequence (Q9UM73 19-1620): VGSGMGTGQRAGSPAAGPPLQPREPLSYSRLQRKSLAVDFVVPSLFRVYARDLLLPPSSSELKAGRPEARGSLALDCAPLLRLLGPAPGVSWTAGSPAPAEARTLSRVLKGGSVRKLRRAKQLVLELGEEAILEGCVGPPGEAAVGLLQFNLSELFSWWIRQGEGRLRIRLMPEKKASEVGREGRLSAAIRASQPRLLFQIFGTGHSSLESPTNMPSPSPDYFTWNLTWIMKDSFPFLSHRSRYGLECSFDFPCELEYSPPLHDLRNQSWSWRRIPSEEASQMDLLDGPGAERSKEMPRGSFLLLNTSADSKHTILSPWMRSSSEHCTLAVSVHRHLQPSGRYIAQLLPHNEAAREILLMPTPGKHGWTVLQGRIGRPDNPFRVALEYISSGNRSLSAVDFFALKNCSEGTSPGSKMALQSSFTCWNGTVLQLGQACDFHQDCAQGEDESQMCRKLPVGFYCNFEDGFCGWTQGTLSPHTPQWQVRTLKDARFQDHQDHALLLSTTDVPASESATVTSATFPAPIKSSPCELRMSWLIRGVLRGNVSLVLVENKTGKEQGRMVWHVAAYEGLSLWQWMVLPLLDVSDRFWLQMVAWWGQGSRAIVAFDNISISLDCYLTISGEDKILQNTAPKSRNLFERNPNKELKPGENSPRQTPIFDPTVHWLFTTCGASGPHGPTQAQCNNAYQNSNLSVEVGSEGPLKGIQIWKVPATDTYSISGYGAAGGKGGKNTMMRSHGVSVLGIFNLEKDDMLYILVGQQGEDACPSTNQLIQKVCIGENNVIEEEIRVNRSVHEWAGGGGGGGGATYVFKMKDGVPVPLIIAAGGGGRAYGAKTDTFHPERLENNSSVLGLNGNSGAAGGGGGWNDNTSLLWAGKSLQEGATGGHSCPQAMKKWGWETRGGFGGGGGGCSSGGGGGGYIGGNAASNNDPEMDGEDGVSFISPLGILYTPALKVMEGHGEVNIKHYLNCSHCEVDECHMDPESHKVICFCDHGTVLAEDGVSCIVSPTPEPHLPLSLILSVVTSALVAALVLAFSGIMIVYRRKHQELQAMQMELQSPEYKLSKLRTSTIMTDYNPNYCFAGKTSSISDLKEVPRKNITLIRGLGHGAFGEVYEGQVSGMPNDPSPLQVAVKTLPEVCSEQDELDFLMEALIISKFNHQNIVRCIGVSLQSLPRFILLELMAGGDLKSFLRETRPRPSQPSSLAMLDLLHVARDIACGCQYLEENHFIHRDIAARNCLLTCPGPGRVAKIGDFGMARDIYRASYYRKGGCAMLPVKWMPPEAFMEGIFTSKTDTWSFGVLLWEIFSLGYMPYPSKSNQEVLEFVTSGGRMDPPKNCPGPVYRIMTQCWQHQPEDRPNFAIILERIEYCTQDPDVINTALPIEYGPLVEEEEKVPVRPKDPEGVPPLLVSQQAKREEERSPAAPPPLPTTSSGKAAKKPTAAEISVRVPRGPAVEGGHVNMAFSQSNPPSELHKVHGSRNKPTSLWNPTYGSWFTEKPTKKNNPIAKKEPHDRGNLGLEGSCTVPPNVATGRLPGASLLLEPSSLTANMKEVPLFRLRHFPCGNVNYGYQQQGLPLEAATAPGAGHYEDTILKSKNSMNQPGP

As for `Cc1cc(Nc2ncc(Cl)c(Nc3ccccc3S(=O)(=O)C(C)C)n2)c(OC(C)C)cc1C1CCNCC1` [Ceritinib], the “potency for inhibiting alk compared with crizotinib” value at ALK (relative to crizotinib) is on record as 20 times.
One may read the IC50 as the point on the concentration scale where inhibition reaches its midpoint. For the compound `C[C@@H]1CN(C(=O)c2ccc(NC(=O)c3cc(O[C@H](C)c4c(Cl)ccc(F)c4Cl)c(N)nn3)cc2)C[C@H](C)N1` [Ensartinib], the IC50 at ALK is less than 0.4 nM.
`C[C@H]1Oc2cc(cnc2N)-c2c(nn(C)c2C#N)CN(C)C(=O)c2ccc(F)cc21` [Lorlatinib]: in data set [1], the CNS penetration entry is recorded as “highly CNS-penetrant”.
With `CC(=O)Nc1cccc(-n2c(=O)n(C3CC3)c(=O)c3c(Nc4ccc(I)cc4F)n(C)c(=O)c(C)c32)c1` [Trametinib], the pEGFR result in data set [2] is “no effect”.
